From ChEMBL document CHEMBL1128061, “N-substituted glycines as replacements for proline in tripeptide aldehyde thrombin inhibitors” (Bioorg Med Chem Lett, 1995)
Where a SMILES comes first, the peptide text is derived from it. [ ]: non-standard residue; d: D form. dPip = O=C(O)[C@H]1CCCCN1

Columns and labels:
[1] = Ratio of association constant of thrombin and tissue-type plasminogen activator
[2] = biological target: Thrombin & trypsin (Homo sapiens) (UniProt P00734+P07477+P07478+P35030); assay: Ratio of association constant of thrombin and trypsin; assay type: protein assay
[3] = biological target: Prothrombin (Homo sapiens) (UniProt P00734); assay: Association constant for thrombin
[4] = Ratio of association constant of thrombin and plasmin

| Compound | Ratio [1] | Ratio [2] | K ass [3] [L/µM] | Ratio [4] |
| --- | --- | --- | --- | --- |
| CC(C)CN(CC(=O)N[C@H](C=O)CCCN=C(N)N)C(=O)[C@H]1CCCCN1 | 24000 | 15 | 24 | 480 |
| N=C(N)NCCC[C@@H](C=O)NC(=O)CN(CCCc1ccccc1)C(=O)[C@H]1CCCCN1 | 4000 | 4 | 24 | 200 |
| CN(CC(=O)N[C@H](C=O)CCCN=C(N)N)C(=O)[C@H]1CCCCN1 | 5500 | 24 | 22 | 730 |
| CC(C)N(CC(=O)N[C@H](C=O)CCCN=C(N)N)C(=O)[C@H]1CCCCN1 | 10000 | 20 | 10 | 10000 |
| CC(C)CCN(CC(=O)N[C@H](C=O)CCCN=C(N)N)C(=O)[C@H]1CCCCN1 | 4000 | 2.7 | 16 | 270 |
| CCN(CC(=O)N[C@H](C=O)CCCN=C(N)N)C(=O)[C@H]1CCCCN1 | 6600 | 25 | 33 | 3300 |
| CCCN(CC(=O)N[C@H](C=O)CCCN=C(N)N)C(=O)[C@H]1CCCCN1 | 8500 | 14 | 34 | 680 |

Second part, the compound after the results:

| Ratio [1] | Ratio [2] | K ass [3] [L/µM] | Ratio [4] | Compound |
| --- | --- | --- | --- | --- |
| 6700 | 3.3 | 200 | 220 | N=C(N)NCCC[C@@H](C=O)NC(=O)[C@@H]1CCCN1C(=O)[C@H]1CCCCN1 (H-[dPip]-Pro-Arg-aldehyde) |
| 14500 | 32 | 87 | 200 | N=C(N)NCCC[C@@H](C=O)NC(=O)CN(CCc1ccccc1)C(=O)[C@H]1CCCCN1 |
| 4000 | 15 | 16 | 400 | N=C(N)NCCC[C@@H](C=O)NC(=O)CN(C(=O)[C@H]1CCCCN1)c1ccccc1 |
| 1000 | 1 | 10 | 77 | N=C(N)NCCC[C@@H](C=O)NC(=O)CN(Cc1ccccc1)C(=O)[C@H]1CCCCN1 |
| 770 | 0.9 | 5.4 | 16 | N=C(N)NCCC[C@@H](C=O)NC(=O)CN(CCC1CCCCC1)C(=O)[C@H]1CCCCN1 |
